Source: PMC5225203, “Multiparameter toxicity assessment of novel DOPO-derived organophosphorus flame retardants” (Archives of Toxicology, 2016)

Key:
Daphnia magna = conditions: water-soluble fraction of a 1000 mg/L suspension (approximately 2 mM), 48 h; ref Waaijers et al. [2013a], [b]; cited from earlier work
[1] = system: rat adrenomedullary pheochromocytoma PC12 cells; conditions: PC12, 24 h, maximal concentration 100 µM; ref Hendriks et al. [2014]; cited from earlier work
[2] = system: rat neuroblastoma B35 cells; conditions: B35, 24 h, maximal concentration 100 µM; ref Hendriks et al. [2014]; cited from earlier work
[3] = system: differentiating LUHMES cells; type: cell-based, human; conditions: day 0 to day 2
Procedure: LUHMES cells are conditionally immortalized human fetal ventral mesencephalic neuronal precursor cells that were obtained by clonal selection. Differentiated LUHMES cells show a clear dopaminergic phenotype, which was described in detail previously (Schildknecht et al. [2009]; Scholz et al. [2011]). Cells were propagated in advanced DMEM/F12 (Gibco/Invitrogen, Darmstadt, Germany) with 1 × N2 supplement (Invitrogen), 2 mM L-glutamine (Gibco), and 40 ng/mL recombinant bFGF (R&D Systems, Minneapolis, MN, USA). […] For quantitative evaluation of the neurite area, β-III-tubulin-stained cells were analyzed using an automated microplate-reading microscope (Array-Scan II® HCS Reader, Cellomics, Pittsburgh, PA, USA) equipped with a Hamamatsu ORCA-ER camera (1024 × 1024 resolution; run at 2 × 2 binning). […]
For quantitative assessment of total neurite mass, cells were analysed by an automated microscope system with imaging algorithms allowing a separation between cell bodies and […]
Suppl. […] Differentiating human dopaminergic neurons (LUHMES) were treate d with the different flame retardants in the concentrations as indicated for 48 h from day 0 to day 2 of differentiation. a Cell viability was determined by the resazurin redu ction and by the lactate dehydrogenase release assays. b Intracellular levels of ATP and of reduced glutathione (GSH) were measured in parallel.

human neural crest cells = system: human neural crest cells; parameters: method as in Zimmer et al. [2014]; conditions: concentrations as high as 100 µM; ref Zimmer et al. [2014]; cited from earlier work
A549 cells = system: A549 cells; parameters: method as in Kim et al. [2014]; conditions: same concentration range as used in the present study; ref Kim et al. [2014]; cited from earlier work

O=[PH]1Oc2ccccc2-c2ccccc21 (stereo not shown) [DOPO, 9,10-dihydro-9-oxa-10-phosphaphenanthrene-10-oxide]
influence on daphnid viability (Daphnia magna): did not significantly influence viability
alterations in cell viability, generation of reactive oxygen species, or intracellular Ca2+ levels [1]: no signs of alterations
alterations in cell viability, generation of reactive oxygen species, or intracellular Ca2+ levels [2]: no signs of alterations

O=P1(NCCNP2(=O)Oc3ccccc3-c3ccccc32)Oc2ccccc2-c2ccccc21 (stereo not shown) [EDA-DOPO, 6,6′-(ethane-1,2-diylbis(azanediyl))bis(6H-dibenzo[c,e][1,2]oxaphosphinine-6-oxide)]
influence on total neurite area [3]: moderate, but significant influence
intracellular levels of ATP and GSH [3]: this effect was not reflected

Brc1ccc(Oc2cc(Br)c(Br)cc2Br)c(Br)c1 [PBDE-99, reference compound]
NCC migration and cell death (human neural crest cells): inhibited migration in the absence of cell death
cell damage in A549 cells (A549 cells): did not produce cell damage
